Data reported in ChEMBL document CHEMBL1201862, “PubChem BioAssay data set” (2004).
Calls of active or inactive are those of the source.

Assays:
[1] = viability inhibitors of stage V gametocytes – luminescence, dose response (AID 1117278); type: functional, cell-based;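 further: gametocytes exposed to compound for 24 hours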
[2] = viability loss in human Jurkat cells – cell-based, luminescence, cytotoxicity control for P. falciparum gametocyte viability project, dose response (AID 1117277); type: functional;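 further: potency reflects loss of cellular ATP meaning fewer viable cells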
Kallikrein-7 = Kallikrein-7 (Homo sapiens, UniProt P49862); test: Fluorescence Intensity-based biochemical primary high throughput dose response assay to identify activators of kallikrein-7 (K7) zymogen.
[3] = P. falciparum Dd2 growth inhibitors, dose response, SYBR Green, cherry-picked samples (AID 1159567); type: functional, cell-based
[4] = toxicity to human hepatoma HepG2 cells – cell-based, cherry-picked samples, cytotoxicity control, dose response (AID 1159577); type: functional
[5] = viability loss in THP-1 monocytes – THP-1 cells, cytotoxicity control for Vif-APOBEC3G degradation inhibitor project, dose response (AID 1117359); type: functional; conditions: THP-1
cells [6] = type: functional, cell-based
[7] = target: T1, Trace amine-associated receptor 1 (Homo sapiens, UniProt Q96RJ0); test: Fluorescence-based cell-based high throughput dose response assay to identify agonists of the human trace amine associated receptor 1 (TAAR1).; type: functional
T1 sequence (Q96RJ0 whole entry): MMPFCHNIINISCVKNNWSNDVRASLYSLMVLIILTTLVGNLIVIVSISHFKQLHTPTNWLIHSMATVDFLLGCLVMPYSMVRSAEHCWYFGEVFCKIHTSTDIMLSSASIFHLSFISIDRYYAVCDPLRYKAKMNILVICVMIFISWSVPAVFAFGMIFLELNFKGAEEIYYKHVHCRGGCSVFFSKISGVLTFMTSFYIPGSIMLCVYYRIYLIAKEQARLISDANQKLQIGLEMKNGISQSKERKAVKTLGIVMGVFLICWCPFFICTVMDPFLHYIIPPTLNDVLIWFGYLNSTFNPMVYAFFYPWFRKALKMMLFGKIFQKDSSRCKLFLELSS

[8] = target: T1, Trace amine-associated receptor 1; test: Counterscreen for agonists of the human trace amine associated receptor 1 (hTAAR1): Fluorescence-based cell-based high throughput dose response assay to identify hTAAR1 agonist that also desensitize TAAR1 receptor response.; type: functional
cells [9] = type: functional, cell-based; remark: listed apart in the source
Paired box protein Pax-8 = Paired box protein Pax-8 (Homo sapiens, UniProt Q06710); test: PAX8 transcriptional activity inhibition in RMG-I – RMG-I cells, luciferase, cherry-pick, dose response (AID 687027); type: functional, cell-based;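 further: luciferase reporter driven by Pax8 target thyroperoxidase promoter measured by SteadyGlo luminescence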
[10] = OVCAR-3 cell viability loss – plate reader, dry powder samples, PAX8 inhibitor project, dose response (AID 743044); type: functional, cell-based
[11] = general cell-killing toxicity readout – plate reader, dry powder samples, cytotoxicity control for PAX8 inhibitor project, dose response (AID 743021); type: functional, cell-based
[12] = OVCAR8 cell viability loss – plate reader, dry powder samples, PAX8 project, dose response (AID 743197); type: functional, cell-based; conditions: OVCAR-8
[13] = target: T2, RNA-editing ligase 1, mitochondrial (Trypanosoma brucei brucei, UniProt P86926); test: inhibition of trypanosome RNA editing ligase – biochemical, fluorescence, Trypanosoma brucei, dose response (AID 1117295); type: functional
T2 sequence (P86926 whole entry): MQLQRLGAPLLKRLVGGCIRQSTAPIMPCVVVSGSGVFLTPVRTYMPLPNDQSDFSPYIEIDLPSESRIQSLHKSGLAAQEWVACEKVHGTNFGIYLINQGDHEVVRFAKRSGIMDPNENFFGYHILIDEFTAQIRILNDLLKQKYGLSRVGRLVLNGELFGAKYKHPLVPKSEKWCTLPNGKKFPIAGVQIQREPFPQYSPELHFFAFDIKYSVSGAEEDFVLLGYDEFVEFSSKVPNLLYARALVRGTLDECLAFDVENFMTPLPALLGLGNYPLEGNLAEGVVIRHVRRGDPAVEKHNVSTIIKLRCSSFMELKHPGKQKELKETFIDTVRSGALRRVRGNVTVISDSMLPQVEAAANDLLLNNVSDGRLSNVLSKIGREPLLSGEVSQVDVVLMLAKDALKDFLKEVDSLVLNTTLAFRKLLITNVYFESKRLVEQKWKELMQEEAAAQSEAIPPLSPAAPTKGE

[14] = target: T3, Tyrosyl-DNA phosphodiesterase 2 (Homo sapiens, UniProt O95551); test: potency against TDP2 phosphodiesterase activity – biochemical, epi absorbance, IC50, dose response (AID 743297)
T3 sequence (O95551 whole entry): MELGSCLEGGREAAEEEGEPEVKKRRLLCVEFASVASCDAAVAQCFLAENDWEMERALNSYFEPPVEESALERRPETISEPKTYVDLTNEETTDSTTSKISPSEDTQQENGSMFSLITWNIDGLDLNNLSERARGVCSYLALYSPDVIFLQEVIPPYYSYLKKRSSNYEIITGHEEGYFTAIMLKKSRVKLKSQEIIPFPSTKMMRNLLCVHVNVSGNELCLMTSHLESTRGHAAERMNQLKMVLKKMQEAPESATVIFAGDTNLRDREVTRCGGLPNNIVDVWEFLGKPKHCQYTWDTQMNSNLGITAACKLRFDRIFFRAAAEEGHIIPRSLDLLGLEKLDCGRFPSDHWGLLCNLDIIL

Sequence of Kallikrein-7 (P49862 whole entry): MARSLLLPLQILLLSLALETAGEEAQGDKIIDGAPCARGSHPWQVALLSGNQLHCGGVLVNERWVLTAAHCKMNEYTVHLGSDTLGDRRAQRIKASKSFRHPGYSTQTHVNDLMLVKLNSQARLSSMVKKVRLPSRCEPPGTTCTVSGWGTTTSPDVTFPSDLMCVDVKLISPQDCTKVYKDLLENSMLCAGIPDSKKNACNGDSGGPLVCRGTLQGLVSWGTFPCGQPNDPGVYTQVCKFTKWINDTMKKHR
Sequence of Paired box protein Pax-8 (Q06710 whole entry): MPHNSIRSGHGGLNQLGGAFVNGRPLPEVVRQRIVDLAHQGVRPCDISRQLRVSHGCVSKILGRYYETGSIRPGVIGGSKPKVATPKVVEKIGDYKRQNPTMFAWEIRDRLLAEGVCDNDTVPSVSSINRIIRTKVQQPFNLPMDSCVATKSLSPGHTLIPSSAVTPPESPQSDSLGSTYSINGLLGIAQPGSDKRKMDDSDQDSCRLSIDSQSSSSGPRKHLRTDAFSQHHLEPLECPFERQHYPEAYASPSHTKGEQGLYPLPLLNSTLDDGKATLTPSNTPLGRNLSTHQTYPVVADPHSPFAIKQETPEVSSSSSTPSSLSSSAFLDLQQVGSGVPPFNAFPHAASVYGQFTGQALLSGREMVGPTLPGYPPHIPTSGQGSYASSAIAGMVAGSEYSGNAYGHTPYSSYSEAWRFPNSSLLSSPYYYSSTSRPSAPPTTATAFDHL

**Q.** Which IC50 [1] does the source give for `COc1ccc(C(=O)NCC(=O)N2CCc3ccccc3C2)cc1` here?
**A.** > 109 µM (inactive)

**Q.** What about the IC50 [2] of the same molecule?
**A.** > 83.3 µM (inactive)

**Q.** For `C[C@H](O)[C@@H]1C(=O)N2CCc3c([nH]c4ccccc34)[C@@H]2C[C@@H]1N(C)C(=O)NC1CCCCC1`, which EC50 (Kallikrein-7) is on record?
**A.** 8.4 µM (active)

**Q.** For `O=C(Nc1ccc2[nH]c(O)nc2c1)c1c(F)c(F)c(F)c(F)c1F`, which EC50 (Kallikrein-7) is on record?
**A.** 22.9 µM (inactive)

**Q.** Which results are given for `COc1ccc2c3c([nH]c2c1)[C@H](CO)N(Cc1ccc(Cl)cc1)CC31CN(Cc2nccs2)C1`?
**A.** AC50 [3]: 4.85 µM (active); AC50 [4]: 31.9 µM (active)

**Q.** For `O=C(NNC(=O)c1ccccc1O)c1cc2ccccc2o1`, which CC50 [5] is on record?
**A.** 19.2 µM (active)

**Q.** With `CC/C(=N\CCc1ccccc1)C1=C(O)CCC1=O` as the molecule, how does the IC50 (cells [6]) read?
**A.** > 29.9 µM (inactive)

**Q.** And the EC50 [7]?
**A.** 0.351 µM (active)

**Q.** And the IC50 [8]?
**A.** 2.34 µM (active)

**Q.** And the EC50 (cells [9])?
**A.** > 29.9 µM (inactive)

**Q.** Which IC50 [1] does the source give for `Cc1cccc(NC(=O)c2csnn2)n1` here?
**A.** > 109 µM (inactive)

**Q.** And the IC50 [2]?
**A.** > 83.3 µM (inactive)

**Q.** Which IC50 (cells [6]) does the source give for `COc1ccc(CCNC(=O)/C=C/C(=O)O)cc1` here?
**A.** > 29.9 µM (inactive)

**Q.** What about the EC50 [7] of the same molecule?
**A.** 10.4 µM (inactive)

**Q.** And the IC50 [8]?
**A.** > 29.9 µM (inactive)

**Q.** And the EC50 (cells [9])?
**A.** > 29.9 µM (inactive)

**Q.** Which AC50 (Paired box protein Pax-8) does the source give for `C[C@@H]1CN([C@@H](C)CO)C(=O)Cc2cc(NC(=O)CCCCCC(=O)Nc3ccccc3N)ccc2O[C@@H]1CN(C)Cc1ccc(C(F)(F)F)cc1` here?
**A.** 6.87 µM (active)

**Q.** And the AC50 [10]?
**A.** 30.1 µM (active)

**Q.** And the AC50 [11]?
**A.** 45.4 µM (active)

**Q.** What about the AC50 [12] of the same molecule?
**A.** 18 µM (active)

**Q.** Which IC50 [13] does the source give for `CCc1ccc(NC(=O)C[n+]2cc(-c3ccc(C)cc3)n3c2CCC3)cc1` here?
**A.** > 96.6 µM (inactive)

**Q.** Which IC50 [14] does the source give for `CCCCn1c(NC(=O)c2ccc(Br)o2)c(C(=O)OCC)c2nc3ccccc3nc21` here?
**A.** > 128 µM (inactive)
